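Cultured in 96-well plates, cells were exposed to test compound for 48 hours across five concentrations. TGI: concentration producing complete growth inhibition.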
How the values were obtained:
Assay in all cases: growth of human tumour cells (NCI), 48 h
UACC-62 melanoma = test system: UACC-62 melanoma
K-562 leukemia = test system: K-562 leukemia
M14 melanoma = test system: M14 melanoma
HCC-2998 colon = test system: HCC-2998 colon
HCT-116 colon = test system: HCT-116 colon
KM20L2 colon = test system: KM20L2 colon
ACHN renal = test system: ACHN renal
LXFL 529 NSCLC = test system: LXFL 529 NSCLC
IGROV1 ovarian = test system: IGROV1 ovarian
SR leukemia = test system: SR leukemia
U251 CNS = test system: U251 CNS
DMS 273 small cell lung = test system: DMS 273 small cell lung
EKVX NSCLC = test system: EKVX NSCLC
UACC-257 melanoma = test system: UACC-257 melanoma
HOP-62 NSCLC = test system: HOP-62 NSCLC
SF-268 CNS = test system: SF-268 CNS
HCT-15 colon = test system: HCT-15 colon
OVCAR-4 ovarian = test system: OVCAR-4 ovarian
NCI-H460 lung = test system: NCI-H460 lung
SNB-19 CNS = test system: SNB-19 CNS
786-0 renal = test system: 786-0 renal
KM12 colon = test system: KM12 colon
RXF 393 renal = test system: RXF 393 renal
SK-MEL-28 melanoma = test system: SK-MEL-28 melanoma
M19-MEL melanoma = test system: M19-MEL melanoma
SNB-75 CNS = test system: SNB-75 CNS
MALME-3M melanoma = test system: MALME-3M melanoma
SK-MEL-5 melanoma = test system: SK-MEL-5 melanoma
NCI-H226 lung = test system: NCI-H226 lung
CCRF-CEM leukemia = test system: CCRF-CEM leukemia
SN12C renal = test system: SN12C renal
A549 NSCLC = test system: A549 NSCLC
OVCAR-8 ovarian = test system: OVCAR-8 ovarian
SF-539 CNS = test system: SF-539 CNS
RPMI-8226 leukemia = test system: RPMI-8226 leukemia
SNB-78 CNS = test system: SNB-78 CNS
HL-60(TB) leukemia = test system: HL-60(TB) leukemia
UO-31 renal = test system: UO-31 renal
TK-10 renal = test system: TK-10 renal
HOP-18 NSCLC = test system: HOP-18 NSCLC
DLD-1 colon = test system: DLD-1 colon
CAKI-1 renal = test system: CAKI-1 renal
A498 renal = test system: A498 renal
COLO 205 colon = test system: COLO 205 colon
MOLT-4 leukemia = test system: MOLT-4 leukemia
NCI-H522 lung = test system: NCI-H522 lung
SK-OV-3 ovarian = test system: SK-OV-3 ovarian
SW-620 colon = test system: SW-620 colon
SK-MEL-2 melanoma = test system: SK-MEL-2 melanoma
HOP-92 NSCLC = test system: HOP-92 NSCLC
LOX IMVI melanoma = test system: LOX IMVI melanoma
NCI-H23 lung = test system: NCI-H23 lung
XF 498 CNS = test system: XF 498 CNS
SF-295 CNS = test system: SF-295 CNS
OVCAR-5 ovarian = test system: OVCAR-5 ovarian
HT29 colon = test system: HT29 colon
OVCAR-3 ovarian = test system: OVCAR-3 ovarian

O=C(CN1C(=O)c2ccccc2C1=O)OC1C=CCCC1 (stereo unspecified)
TGI (UACC-62 melanoma): > 100 µM
TGI (K-562 leukemia): > 100 µM
TGI (M14 melanoma): > 100 µM
TGI (HCC-2998 colon): > 100 µM
TGI (HCT-116 colon): > 100 µM
TGI (KM20L2 colon): > 100 µM
TGI (ACHN renal): > 100 µM
TGI (LXFL 529 NSCLC): > 100 µM
TGI (IGROV1 ovarian): > 100 µM
TGI (SR leukemia): > 100 µM
TGI (U251 CNS): > 100 µM
TGI (DMS 273 small cell lung): > 100 µM
TGI (EKVX NSCLC): > 100 µM
TGI (UACC-257 melanoma): > 100 µM
TGI (HOP-62 NSCLC): > 100 µM
TGI (SF-268 CNS): > 100 µM
TGI (HCT-15 colon): > 100 µM
TGI (OVCAR-4 ovarian): > 100 µM
TGI (NCI-H460 lung): > 100 µM
TGI (SNB-19 CNS): > 100 µM
TGI (786-0 renal): > 100 µM
TGI (KM12 colon): > 100 µM
TGI (RXF 393 renal): > 100 µM
TGI (SK-MEL-28 melanoma): > 100 µM
TGI (M19-MEL melanoma): > 100 µM
TGI (SNB-75 CNS): > 100 µM
TGI (MALME-3M melanoma): > 100 µM
TGI (SK-MEL-5 melanoma): > 100 µM
TGI (NCI-H226 lung): > 100 µM
TGI (CCRF-CEM leukemia): > 100 µM
TGI (SN12C renal): > 100 µM
TGI (A549 NSCLC): > 100 µM
TGI (OVCAR-8 ovarian): > 100 µM
TGI (SF-539 CNS): > 100 µM
TGI (RPMI-8226 leukemia): > 100 µM
TGI (SNB-78 CNS): > 100 µM
TGI (HL-60(TB) leukemia): > 100 µM
TGI (UO-31 renal): > 100 µM
TGI (TK-10 renal): > 100 µM
TGI (HOP-18 NSCLC): > 100 µM
TGI (DLD-1 colon): > 100 µM
TGI (CAKI-1 renal): > 100 µM
TGI (A498 renal): > 100 µM
TGI (COLO 205 colon): > 100 µM
TGI (MOLT-4 leukemia): > 100 µM
TGI (NCI-H522 lung): > 100 µM
TGI (SK-OV-3 ovarian): > 100 µM
TGI (SW-620 colon): > 100 µM
TGI (SK-MEL-2 melanoma): > 100 µM

Nc1nc(SCCC/C=C/B(O)O)nc2c1ncn2C1OC(CO)C(O)C1O (stereo unspecified)
TGI (HOP-92 NSCLC): > 243 µM
TGI (UACC-62 melanoma): > 243 µM
TGI (K-562 leukemia): > 243 µM
TGI (M14 melanoma): > 243 µM
TGI (HCC-2998 colon): > 243 µM
TGI (HCT-116 colon): > 243 µM
TGI (KM20L2 colon): > 243 µM
TGI (LOX IMVI melanoma): > 243 µM
TGI (ACHN renal): > 243 µM
TGI (LXFL 529 NSCLC): > 243 µM
TGI (IGROV1 ovarian): > 243 µM
TGI (SR leukemia): > 243 µM
TGI (U251 CNS): > 243 µM
TGI (DMS 273 small cell lung): > 243 µM
TGI (EKVX NSCLC): > 243 µM
TGI (NCI-H23 lung): > 243 µM
TGI (UACC-257 melanoma): > 243 µM
TGI (HOP-62 NSCLC): > 243 µM
TGI (SF-268 CNS): > 243 µM
TGI (HCT-15 colon): > 243 µM
TGI (OVCAR-4 ovarian): > 243 µM
TGI (NCI-H460 lung): > 243 µM
TGI (SNB-19 CNS): > 243 µM
TGI (KM12 colon): > 243 µM
TGI (RXF 393 renal): > 243 µM
TGI (SK-MEL-28 melanoma): > 243 µM
TGI (M19-MEL melanoma): > 243 µM
TGI (SNB-75 CNS): > 243 µM
TGI (MALME-3M melanoma): > 243 µM
TGI (SK-MEL-5 melanoma): > 243 µM
TGI (NCI-H226 lung): > 243 µM
TGI (XF 498 CNS): > 243 µM
TGI (CCRF-CEM leukemia): > 243 µM
TGI (SN12C renal): > 243 µM
TGI (A549 NSCLC): > 243 µM
TGI (OVCAR-8 ovarian): > 243 µM
TGI (SF-539 CNS): > 243 µM
TGI (SNB-78 CNS): > 243 µM
TGI (SF-295 CNS): > 243 µM
TGI (HL-60(TB) leukemia): > 243 µM
TGI (TK-10 renal): > 243 µM
TGI (OVCAR-5 ovarian): > 243 µM
TGI (DLD-1 colon): > 243 µM
TGI (A498 renal): > 243 µM
TGI (COLO 205 colon): > 243 µM
TGI (MOLT-4 leukemia): > 243 µM
TGI (NCI-H522 lung): > 243 µM
TGI (SK-OV-3 ovarian): > 243 µM
TGI (HT29 colon): > 243 µM
TGI (SW-620 colon): > 243 µM
TGI (OVCAR-3 ovarian): > 243 µM
TGI (SK-MEL-2 melanoma): > 243 µM

Reference: PubChem BioAssay (NCI)
